Common to all, as to assay type: cell-based
Assay [1] deals with Enterococcus faecalis ATCC 29212 biofilm. Nature of the assay: Activity against biofilms formed on polystyrene 96-well plates, 24 h exposure, resazurin. Particulars: polystyrene plate, 24 h exposure in MHB II. The procedure: (§1) Bacterial strains were obtained from the Polish Collection of Microorganisms (Polish Academy of Science, Wroclaw, Poland). […] The bacteria were cultured in a Mueller Hinton Broth II (MHB, Biocorp, Warsaw, Poland) overnight, under aerobic conditions at 37 °C. After incubation, the liquid cultures were centrifuged (2500 rpm for 10 min) and washed with phosphoric buffer (PBS, AppliChem, Darmstadt, Germany) three times and resuspended in fresh MHB II for inoculums appropriate for the performed assays.
(§2) Bacterial suspensions were added to 96-well plates (Kartell, Noviglio, Italy) at initial inoculums of ca. 5 × 10^8 CFU/mL and incubated under aerobic conditions with shaking (120 rpm) at 37 °C for 24 h. […] After exposure, the wells were washed three times with PBS and a solution of resazurin (Sigma Aldrich, St. Louis, MO, USA) in MHB II (0.01%) was added. This cell viability reagent is metabolized by bacterial dehydrogenases upon contact with living cells. As a result, the blue dye is reduced to a pink resorufin. After 1.5 h of incubation, the absorbance was measured at 570 and 600 nm using a microplate reader (Thermo Fisher Scientific, Waltham, MA, USA). […] The metabolic activity of bacteria in the samples was measured according to the following formula:
(§3) Metabolic activity (%) = (ΔAbs of sample − ΔAbs of negative control)/(ΔAbs of positive control − ΔAbs of negative control);
(§4) ΔAbs = absorbance at 570 nm − absorbance at 600 nm;
(§5) The presented results are the means of nine results obtained on three different days.
For orientation: The colour change of resazurin is a common sign of viable cells or microbes.

Assay [2] deals with Escherichia coli ATCC 25922 biofilm. Described as above. Particulars: polystyrene plate, 24 h exposure in MHB II. The procedure: as §1, §2, §3, §4, §5
The test system of assay [3] is Pseudomonas aeruginosa ATCC 9027 biofilm. The description is as above. The settings on record: lowest concentration reducing metabolic activity by at least 50 ± 5%; polystyrene plate, 24 h exposure in MHB II, resazurin. How it is done: as §1, §2, §3, §4, §5
For assay [4], the system named is Staphylococcus epidermidis ATCC 14990 biofilm. Described as above. The settings on record: polystyrene plate, 24 h exposure in MHB II, resazurin. How it is done: as §1, §2, §3, §4, §5
Assay [5] has as its system Enterococcus faecalis ATCC 29212 biofilm. Put plainly: Effect of the lipopeptide on lens liquids against biofilms on 96-well polystyrene plates. The settings on record: EF biofilm on polystyrene, lipopeptide alone in PBS, 'the same concentration' (32 or 16 mg/L), 24 h. The procedure:
(§6) Bacterial strains were obtained from the Polish Collection of Microorganisms (Polish Academy of Science, Wroclaw, Poland). Three Gram-positive and two Gram-negative strains linked with CL-related infections were chosen for the study (Staphylococus aureus ATCC 6538, Staphylococcus epidermidis ATCC 14990, Pseudomonas aeruginosa ATCC 9027, Escherichia coli ATCC 25922, and Enterococcus faecalis ATCC 29212). The bacteria were cultured in a Mueller Hinton Broth II (MHB, Biocorp, Warsaw, Poland) overnight, under aerobic conditions at 37 °C. […]
(§7) Bacterial suspensions were added to 96-well plates (Kartell, Noviglio, Italy) at initial inoculums of ca. 5 × 10^8 CFU/mL and incubated under aerobic conditions with shaking (120 rpm) at 37 °C for 24 h. […] After 1.5 h of incubation, the absorbance was measured at 570 and 600 nm using a microplate reader (Thermo Fisher Scientific, Waltham, MA, USA). […] The metabolic activity of bacteria in the samples was measured according to the following formula:
(§8) Positive controls (100%) were wells with pre-grown biofilms where the MHB II was replaced with pure PBS, while negative controls were wells with pure MHB II (also replaced with PBS). After 24 h of incubation (aerobic conditions, 120 rpm shaking, 37 °C), the solutions were replaced with resazurin in MHB II and the results were read and presented as described in Section 4.3.

Assay [6] deals with Staphylococcus epidermidis ATCC 14990 biofilm. Described as above. Particulars: SE biofilm on polystyrene, lipopeptide alone in PBS, 24 h. The procedure:
as §6, §7, §8

Where [7] appears, read: lowest concentration reducing metabolic activity by at least 50 ± 5%.
The mark [8] stands for this setting: lowest concentration reducing metabolic activity by at least 90 ± 5%, mean of nine results.

Consider one substance from publication PMC6358866 (International Journal of Molecular Sciences, 2019).

On to (C10)2-KKKK-NH2 [Lipopeptide], for which the “MBEC 50” value in assay [1] (setting [7]) came to 16 mg/L; in assay [2] (setting [7]), 64 mg/L; in assay [3], 64 mg/L; in assay [4] (setting [7]), 16 mg/L. The “MBEC 90” value in assay [1] (setting [8]) is given as 32 mg/L; in assay [2] (setting [8]) it was 64 mg/L; in assay [4] (setting [8]), 16 mg/L. The “reduction of metabolic activity in the biofilm” value in assay [5] was “ca. 95%”. Besides, in assay [6], the “concentration at which highly active against biofilm” value is reported as 16 mg/L.
